The values that follow come from publication PMC5786021, “A dynamic allosteric pathway underlies Rad50 ABC ATPase function in DNA repair” (Scientific Reports, 2018).

One experiment deals with T1, Mre11_2-Rad50^NBD2 (Pyrococcus furiosus, UniProt P58301, DEL196-708).
T1 construct: about 160 kDa; E. coli; with DNA double-strand break repair protein Mre11
Nature of the experiment: 2-aminopurine DNA exonuclease fluorescence. It counts as biochemical. The settings on record: 1 mM AMP-PNP, 1 mM MnCl2, 5 mM MgCl2, 50 mM Tris pH 7.5, 60 °C; allosteric via Rad50.

Experiment [1] deals with T2, Mre11^HLH-Rad50^NBD (Pyrococcus furiosus, UniProt P58301, DEL196-708).
T2 construct: Mre11 helix-loop-helix aa344-426; His and NusA-His tags removed with TEV; E. coli; monomeric without nucleotide; with DNA double-strand break repair protein Mre11
The experiment in a line: fluorescence polarization competition with BODIPY FL ATP. The class given is binding.

For experiment [2], the target named is T3, Mre11^HLH-Rad50^NBD (Pyrococcus furiosus, UniProt P58301, DEL196-708/R805E).
T3 construct: Mre11 helix-loop-helix aa344-426; His and NusA-His tags removed with TEV; E. coli; monomeric without nucleotide; with DNA double-strand break repair protein Mre11
The description is as above. The class given is binding.

Like-named read-outs stand apart in the source and are kept apart here.

T2 sequence (P58301 709-882, stated change not applied, other chains not shown): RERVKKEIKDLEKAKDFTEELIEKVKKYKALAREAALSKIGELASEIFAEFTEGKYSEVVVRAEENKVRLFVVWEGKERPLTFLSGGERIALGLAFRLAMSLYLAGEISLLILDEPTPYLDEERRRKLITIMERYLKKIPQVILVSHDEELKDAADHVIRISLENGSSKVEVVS
T2 sequence (P58301 1-195, stated change not applied, other chains not shown): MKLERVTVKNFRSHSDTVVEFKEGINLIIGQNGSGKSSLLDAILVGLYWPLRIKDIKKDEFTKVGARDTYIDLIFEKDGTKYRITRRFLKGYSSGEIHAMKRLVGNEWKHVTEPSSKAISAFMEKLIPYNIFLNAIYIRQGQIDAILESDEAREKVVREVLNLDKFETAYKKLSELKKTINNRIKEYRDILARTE
T3 sequence (P58301 709-882 R805E, other chains not shown): as the sequence (P58301 709-882, stated change not applied, other chains not shown) above, with R97E counted along it
T3 sequence (P58301 1-195, stated change not applied, other chains not shown): as the sequence (P58301 1-195, stated change not applied, other chains not shown) above
T1 sequence (P58301 709-882, stated change not applied): as the sequence (P58301 709-882, stated change not applied, other chains not shown) above
T1 sequence (P58301 1-195, stated change not applied): as the sequence (P58301 1-195, stated change not applied, other chains not shown) above

Consider `Nc1ncnc2c1ncn2[C@@H]1O[C@H](COP(=O)(O)OP(=O)(O)NP(=O)(O)O)[C@@H](O)[C@H]1O` [AMP-PNP], for which, on Mre11_2-Rad50^NBD2, the “reduction in Mre11 exonuclease activity” value was “non-hydrolyzable ATP analog AMP-PNP resulted in a dramatic reduction in exonuclease activity”.
Usually Ki stands for a dissociation constant, usually derived from enzyme kinetics or from competition with a known ligand. For `Nc1ncnc2c1ncn2[C@@H]1O[C@H](COP(=O)(O)OP(=O)(O)O)[C@@H](O)[C@H]1O` [ADP], the Ki on Mre11^HLH-Rad50^NBD [1] (read-out: KI,ADP) amounted to 6.5 µM.
As to `Nc1ncnc2c1ncn2[C@@H]1O[C@H](COP(=O)(O)OP(=O)(O)OP(=O)(O)O)[C@@H](O)[C@H]1O` [ATP], the Ki stood at 3 µM at Mre11^HLH-Rad50^NBD [2] and 9.8 µM at Mre11^HLH-Rad50^NBD [1].
